# Measurements from paper PMC8765781, “A platform of assays for the discovery of anti-Zika small-molecules with activity in a 3D-bioprinted outer-blood-retina model” (PLoS ONE, 2022).
# Like-named read-outs stand apart in the source and are kept apart here.
# Legend:
# [1] = system: ZIKV-RLuc (Cambodian strain FSS13025); assay: microbe, parasite or virus in culture; format: cell-based, Zika virus
# [2] = Zika virus, Vero, read-out: Log AC50 (M) (converted)
Structure (SMILES),CC-v2 (curve class classification v2 of the dose response curve) [1],Efficacy (difference between neutral response and maximum compound response) [1],Max Resp (difference between neutral response and compound response for highest compound concentration) [1],"AC50 ([1]; Zika virus, Vero)","AC50 [1, 2]",AC50 (Vero cells),Log AC50 (M) (Vero cells),AC50 [1],Log AC50 (M) [1]
CC(C)c1cc(-c2n[nH]c(=O)n2-c2ccc3c(ccn3C)c2)c(O)cc1O [NCGC00346678-01],-2.2,-44.79,-44.962,8.27e-06 M,8.27e-06 M,8.27 µM,-5.0827 M,–,–
CC(C)c1cc(-c2n[nH]c(=O)n2-c2ccc3c(ccn3C)c2)c(O)cc1O [NCGC00346678-04],-2.2,-65.758,-62.389,–,–,9.28 µM,-5.0327 M,9.28e-06 M,-5.0327
CNC(=O)c1cccc(-c2ccc3c(N4CCOC[C@@H]4C)nc(N4CCOC[C@@H]4C)nc3n2)c1 [NCGC00346698-01],-2.2,-76.837,-71.465,1.65e-05 M,1.65e-05 M,16.5 µM,-4.7827 M,–,–
CCN(CC)Cc1ccc2cc(COC(=O)Nc3ccc(C(=O)NO)cc3)ccc2c1 [NCGC00346743-01],-1.2,-68.967,-98.985,2.61e-06 M,2.61e-06 M,2.61 µM,-5.5827 M,–,–
COc1cc(C(=O)NC2CCN(C)CC2)ccc1Nc1ncc2c(n1)N(C1CCCC1)CCC(=O)N2C(C)C [NCGC00346965-01],-2.4,-47.886,-47.265,1.31e-05 M,1.31e-05 M,13.1 µM,-4.8827 M,–,–
CCOC(=O)N1CCN(/[N+]([O-])=N/Oc2ccc([N+](=O)[O-])cc2C#N)CC1 [NCGC00346969-01],-1.1,-94.201,-99.104,3.29e-06 M,3.29e-06 M,3.29 µM,-5.4827 M,–,–
C=C1[C@@H](O)[C@]2(O)OC[C@]34C2[C@]2(C)C(C[C@H]3OC(=O)[C@H](O)[C@@]14O)C(C)=CC(=O)[C@H]2O (some centres unmarked) [NCGC00347491-02],-2.2,-33.078,-33.995,7.23e-06 M,7.23e-06 M,7.23 µM,-5.1408 M,–,–
CC(C)C(=O)O[C@H]1[C@@H]2[C@H](C)C(=O)O[C@@H]2C[C@@H](C)[C@@H]2C=CC(=O)[C@]21C [NCGC00347562-02],-3,-106.49,-96.985,2.28e-05 M,2.28e-05 M,22.8 µM,-4.6425 M,–,–
C=C(C)C1Cc2c(cc(O)c3c2OC2COc4cc(OC)c(OC)cc4C2(O)C3=O)O1 (centres unmarked) [NCGC00347649-02],-1.1,-91.85,-97.372,9.28e-08 M,9.27e-08 M,0.0927 µM,–,–,–
COC(=O)C1(Cc2ccc(O)c(CC=C(C)C)c2)OC(=O)C(OC)=C1c1cc(O)c(O)c(CC=C(C)C)c1 (centres unmarked) [NCGC00347732-02],-1.1,-101.002,-99.456,9.28e-06 M,9.27e-06 M,9.28 µM,-5.0327 M,–,–
CC(C)=CCCC(C)(O)CCCC(C)(O)CCCC(C)(O)CCCC(C)(O)CCCC(C)(O)CCCC(C)(O)C(O)CC/C(C)=C/CC/C(C)=C/CO[C@@H]1O[C@H](CO)[C@@H](O)[C@H](O)[C@H]1O (some centres unmarked) [NCGC00347748-02],-1.1,-100.94,-99.117,3.62e-06 M,3.62e-06 M,3.62 µM,-5.4408 M,–,–
CC(=O)OC1C=C(CO)C(=O)C(OC(=O)CC(C)C)C1C(C)C (centres unmarked) [NCGC00347760-02],-3,-123.001,-99.998,3.69e-05 M,3.69e-05 M,36.9 µM,-4.4327 M,–,–
CC(C)(C)OC(=O)N[C@@H](Cc1ccc(O[S+](=O)([O-])c2cccc3cnccc23)cc1)C(=O)N1CCCN(C(=O)OC(C)(C)C)CC1 [NCGC00348020-01],-3,-104.596,-83.301,3.69e-05 M,3.69e-05 M,36.9 µM,-4.4327 M,–,–
CC1OC(OC2C(OC3C(OC4CCC5(C)C(CCC6(C)C5CC=C5C7CC(C)(C)CCC7(C(=O)O)C(O)CC56C)C4(C)C)OC(C(=O)O)C(O)C3O)OC(CO)C(OC3OCC(O)C(OC4OC(CO)C(O)C4O)C3O)C2OC2OC(C)C(O)C(O)C2O)C(O)C(O)C1O (centres unmarked) [NCGC00380107-01],-2.1,-79.638,-81.884,1.28e-05 M,1.28e-05 M,12.8 µM,-4.894 M,–,–
C[C@@H]1O[C@@H](O[C@H]2[C@H](OC(=O)[C@]34CCC(C)(C)C[C@H]3C3=CCC5[C@@]6(C)C[C@H](O)[C@H](O[C@@H]7O[C@H](C(=O)O)[C@@H](O)[C@H](O)[C@H]7O)[C@@](C)(CO)C6[C@H](O)C[C@@]5(C)[C@]3(C)CC4)OC[C@H](O)[C@@H]2O)[C@H](O)[C@H](O)[C@H]1O[C@@H]1OC[C@@H](O)[C@H](O[C@@H]2OC[C@](O)(CO)[C@H]2O)[C@H]1O (some centres unmarked) [NCGC00380219-01],-2.1,-96.8,-99.643,1.16e-05 M,1.16e-05 M,11.6 µM,-4.9345 M,–,–
COC1C(O)C(OC2CCC3(C)C(CCC4C3CCC3(C)C(C5=CC(=O)OC5)CCC43O)C2)OC(C)C1OC1OC(COC2OC(CO)C(O)C(O)C2O)C(O)C(O)C1O (centres unmarked) [NCGC00380220-01],-1.1,-95.552,-99.662,1.29e-06 M,1.29e-06 M,1.29 µM,-5.8908 M,–,–
CC1CCCC(SCC(O)C(=O)O)CC(=O)c2c(O)cc(O)cc2CC(=O)O1 (centres unmarked) [NCGC00380419-01],-3,-93.408,-77.007,1.82e-05 M,1.82e-05 M,18.2 µM,-4.7408 M,–,–
C/C(=C\CO)CC/C=C(\C)CCC(O)C(C)(O)CCCC(C)(O)CCCC(C)(O)CCCC(C)(O)CCCC(C)(O)CCCC(C)(O)CCCC(C)(C)O (centres unmarked) [NCGC00381040-01],-1.1,-92.604,-99.402,1.44e-06 M,1.44e-06 M,1.44 µM,-5.8408 M,–,–
COc1ccc2c(c1)CN(C(=O)CCN1CCC(Cc3ccccc3)CC1)CCS2 [NCGC00384450-01],-3,-97.233,-83.243,3.69e-05 M,3.69e-05 M,36.9 µM,-4.4327 M,–,–
C=C(C)[C@H]1CCC(C)=C[C@@H]1c1c(O)cc(CCCCC)cc1O [NCGC00385066-01],-3,-124.845,-99.067,3.69e-05 M,3.69e-05 M,36.9 µM,-4.4327 M,–,–
Oc1cc(O)cc(CCCCC/C=C\CCCCCCCc2cc(O)cc(O)c2)c1 [NCGC00385180-01],-3,-110.94,-89.374,3.69e-05 M,3.69e-05 M,–,-4.4327 M,–,–
COc1ccc(-c2oc3cc(O)c(OC)c(O)c3c(=O)c2OC)cc1O [NCGC00385612-01],-1.2,-71.455,-72.562,1.17e-06 M,1.17e-06 M,1.17 µM,-5.9327 M,–,–
